Earlier results, collected in patent US10035944B2, “Using synthetic acid compositions as alternatives to conventional acids in the oil and gas industry” (priority 2014, dated 2018).

Settings: death in 2-3 minutes

For `Cl` [Hydrogen chloride gas, Hydrogen chloride], the “level at which death can occur” value is listed as 1300-2000 ppm.
